Assay results from PubChem BioAssay (NCI).
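Growth conditions: 96-well plates. Treatment: test compound, 48 hours, 5 concentrations. Analysis: linear interpolation between bracketing concentrations; unreached endpoints set to highest concentration. GI50 = concentration required for 50% inhibition of growth. Definition used: TGI = concentration required for complete inhibition of growth.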

Key:
Test in all cases: inhibition of tumour cell growth, NCI panel, 48 h
HL-60(TB) leukemia = test system: HL-60(TB) leukemia
SK-OV-3 ovarian = test system: SK-OV-3 ovarian
EKVX NSCLC = test system: EKVX NSCLC
PC-3 prostate = test system: PC-3 prostate
OVCAR-8 ovarian = test system: OVCAR-8 ovarian
786-0 renal = test system: 786-0 renal
NCI-H23 lung = test system: NCI-H23 lung
CAKI-1 renal = test system: CAKI-1 renal
HOP-62 NSCLC = test system: HOP-62 NSCLC
MDA-MB-231 breast = test system: MDA-MB-231 breast
ACHN renal = test system: ACHN renal
COLO 205 colon = test system: COLO 205 colon
BT-549 breast = test system: BT-549 breast
MCF7 breast = test system: MCF7 breast
LOX IMVI melanoma = test system: LOX IMVI melanoma
NCI/ADR-RES ovarian = test system: NCI/ADR-RES ovarian
SK-MEL-2 melanoma = test system: SK-MEL-2 melanoma
HCT-15 colon = test system: HCT-15 colon
U251 CNS = test system: U251 CNS
TK-10 renal = test system: TK-10 renal
NCI-H460 lung = test system: NCI-H460 lung
M14 melanoma = test system: M14 melanoma
IGROV1 ovarian = test system: IGROV1 ovarian
KM12 colon = test system: KM12 colon
HOP-92 NSCLC = test system: HOP-92 NSCLC
NCI-H226 lung = test system: NCI-H226 lung
SF-539 CNS = test system: SF-539 CNS
RXF 393 renal = test system: RXF 393 renal
HT29 colon = test system: HT29 colon
SNB-19 CNS = test system: SNB-19 CNS
RPMI-8226 leukemia = test system: RPMI-8226 leukemia
OVCAR-4 ovarian = test system: OVCAR-4 ovarian
SW-620 colon = test system: SW-620 colon
K-562 leukemia = test system: K-562 leukemia
UACC-62 melanoma = test system: UACC-62 melanoma
HS 578T breast = test system: HS 578T breast
SF-295 CNS = test system: SF-295 CNS
SK-MEL-5 melanoma = test system: SK-MEL-5 melanoma
MOLT-4 leukemia = test system: MOLT-4 leukemia
HCC-2998 colon = test system: HCC-2998 colon
SF-268 CNS = test system: SF-268 CNS
T-47D breast = test system: T-47D breast
UO-31 renal = test system: UO-31 renal
SK-MEL-28 melanoma = test system: SK-MEL-28 melanoma
A549 NSCLC = test system: A549 NSCLC
SR leukemia = test system: SR leukemia
A498 renal = test system: A498 renal
MALME-3M melanoma = test system: MALME-3M melanoma
DU-145 prostate = test system: DU-145 prostate
CCRF-CEM leukemia = test system: CCRF-CEM leukemia
OVCAR-5 ovarian = test system: OVCAR-5 ovarian
NCI-H522 lung = test system: NCI-H522 lung
HCT-116 colon = test system: HCT-116 colon
OVCAR-3 ovarian = test system: OVCAR-3 ovarian
MDA-MB-435 = test system: MDA-MB-435
UACC-257 melanoma = test system: UACC-257 melanoma
SN12C renal = test system: SN12C renal

Cn1cc(-c2nnc(N)nc2-c2c[nH]c3ccc(F)cc23)c2cc(Br)ccc21
GI50 (HL-60(TB) leukemia): 0.707 µM
TGI (HL-60(TB) leukemia): > 100 µM
GI50 (SK-OV-3 ovarian): 2.53 µM
TGI (SK-OV-3 ovarian): 15.1 µM
GI50 (EKVX NSCLC): 3.02 µM
TGI (EKVX NSCLC): 15.8 µM
GI50 (PC-3 prostate): 0.991 µM
TGI (PC-3 prostate): 20.6 µM
GI50 (OVCAR-8 ovarian): 2.98 µM
TGI (OVCAR-8 ovarian): 20.7 µM
GI50 (786-0 renal): 3.79 µM
TGI (786-0 renal): 22.4 µM
GI50 (NCI-H23 lung): 2.08 µM
TGI (NCI-H23 lung): 10.4 µM
GI50 (CAKI-1 renal): 0.668 µM
TGI (CAKI-1 renal): 12.5 µM
GI50 (HOP-62 NSCLC): 1.64 µM
TGI (HOP-62 NSCLC): 14.6 µM
GI50 (MDA-MB-231 breast): 2.3 µM
TGI (MDA-MB-231 breast): 16.7 µM
GI50 (ACHN renal): 2.8 µM
TGI (ACHN renal): 13.6 µM
GI50 (COLO 205 colon): 0.64 µM
TGI (COLO 205 colon): 3.94 µM
GI50 (BT-549 breast): 2.67 µM
TGI (BT-549 breast): 17.6 µM
GI50 (MCF7 breast): 0.7 µM
TGI (MCF7 breast): 11.2 µM
GI50 (LOX IMVI melanoma): 1.19 µM
TGI (LOX IMVI melanoma): 14 µM
GI50 (NCI/ADR-RES ovarian): 2.25 µM
TGI (NCI/ADR-RES ovarian): 22.9 µM
GI50 (SK-MEL-2 melanoma): 2.06 µM
TGI (SK-MEL-2 melanoma): 10.5 µM
GI50 (HCT-15 colon): 0.591 µM
TGI (HCT-15 colon): 13.1 µM
GI50 (U251 CNS): 2.43 µM
TGI (U251 CNS): 14.3 µM
GI50 (TK-10 renal): 5.18 µM
TGI (TK-10 renal): 38.9 µM
GI50 (NCI-H460 lung): 0.611 µM
TGI (NCI-H460 lung): 10.8 µM
GI50 (M14 melanoma): 1.3 µM
TGI (M14 melanoma): 12.3 µM
GI50 (IGROV1 ovarian): 0.881 µM
TGI (IGROV1 ovarian): 12.7 µM
GI50 (KM12 colon): 0.875 µM
TGI (KM12 colon): 14.6 µM
GI50 (HOP-92 NSCLC): 1.7 µM
TGI (HOP-92 NSCLC): 13.1 µM
GI50 (NCI-H226 lung): 3.06 µM
TGI (NCI-H226 lung): 24.4 µM
GI50 (SF-539 CNS): 1.88 µM
TGI (SF-539 CNS): 8.7 µM
GI50 (RXF 393 renal): 1.38 µM
TGI (RXF 393 renal): 3.88 µM
GI50 (HT29 colon): 0.458 µM
TGI (HT29 colon): 10.8 µM
GI50 (SNB-19 CNS): 2.56 µM
TGI (SNB-19 CNS): 14.8 µM
GI50 (RPMI-8226 leukemia): 2.29 µM
TGI (RPMI-8226 leukemia): 43.4 µM
GI50 (OVCAR-4 ovarian): 2.91 µM
TGI (OVCAR-4 ovarian): 13.1 µM
GI50 (SW-620 colon): 0.658 µM
TGI (SW-620 colon): 14.2 µM
GI50 (K-562 leukemia): 0.453 µM
TGI (K-562 leukemia): > 100 µM
GI50 (UACC-62 melanoma): 0.65 µM
TGI (UACC-62 melanoma): 12.6 µM
GI50 (HS 578T breast): 2.04 µM
TGI (HS 578T breast): 8.17 µM
GI50 (SF-295 CNS): 0.792 µM
TGI (SF-295 CNS): 5.08 µM
GI50 (SK-MEL-5 melanoma): 1.15 µM
TGI (SK-MEL-5 melanoma): 2.71 µM
GI50 (MOLT-4 leukemia): 1.38 µM
TGI (MOLT-4 leukemia): > 100 µM
GI50 (HCC-2998 colon): 2.99 µM
TGI (HCC-2998 colon): 12.5 µM
GI50 (SF-268 CNS): 2.73 µM
TGI (SF-268 CNS): 20.1 µM
GI50 (T-47D breast): 1.91 µM
TGI (T-47D breast): 19.9 µM
GI50 (UO-31 renal): 1.76 µM
TGI (UO-31 renal): 13.9 µM
GI50 (SK-MEL-28 melanoma): 2.98 µM
TGI (SK-MEL-28 melanoma): 17.6 µM
GI50 (A549 NSCLC): 2.11 µM
TGI (A549 NSCLC): 46.7 µM
GI50 (SR leukemia): 0.671 µM
TGI (SR leukemia): > 100 µM
GI50 (A498 renal): 1.54 µM
TGI (A498 renal): 4.84 µM
GI50 (MALME-3M melanoma): 1.32 µM
TGI (MALME-3M melanoma): 16.6 µM
GI50 (DU-145 prostate): 2.91 µM
TGI (DU-145 prostate): 26.9 µM
GI50 (CCRF-CEM leukemia): 2.29 µM
TGI (CCRF-CEM leukemia): > 100 µM
GI50 (OVCAR-5 ovarian): 3.15 µM
TGI (OVCAR-5 ovarian): 16.7 µM
GI50 (NCI-H522 lung): 0.933 µM
TGI (NCI-H522 lung): 8.28 µM
GI50 (HCT-116 colon): 1.08 µM
TGI (HCT-116 colon): 11.1 µM
GI50 (OVCAR-3 ovarian): 1.15 µM
TGI (OVCAR-3 ovarian): 9.57 µM
GI50 (MDA-MB-435): 0.28 µM
TGI (MDA-MB-435): 0.829 µM
GI50 (UACC-257 melanoma): 4.71 µM
TGI (UACC-257 melanoma): 19.3 µM
GI50 (SN12C renal): 3.12 µM
TGI (SN12C renal): 17.4 µM
